Reference: US20260176249A1, “PROTEIN KINASE INHIBITOR, PREPARATION METHOD THEREFOR, AND APPLICATION THEREOF” (SHANDONG LUYE PHARMACEUTICAL CO., LTD., priority 2021, published 2026)
Read-outs that look alike come from different tables or passages of the source. Values belong to the compound of their own block, whether it stands above or below them.

Assays:
PLK1 kinase = biological target: T1, PLK1 kinase (Homo sapiens, UniProt P53350); assay: Inhibitory activity on PLK1 kinase; format: biochemical; conditions: for Imax: maximum effect caused by the compound at the test concentration
T1 construct: purchased Carnabio (Carna Biosciences) 05-157
T1 sequence (P53350 whole entry): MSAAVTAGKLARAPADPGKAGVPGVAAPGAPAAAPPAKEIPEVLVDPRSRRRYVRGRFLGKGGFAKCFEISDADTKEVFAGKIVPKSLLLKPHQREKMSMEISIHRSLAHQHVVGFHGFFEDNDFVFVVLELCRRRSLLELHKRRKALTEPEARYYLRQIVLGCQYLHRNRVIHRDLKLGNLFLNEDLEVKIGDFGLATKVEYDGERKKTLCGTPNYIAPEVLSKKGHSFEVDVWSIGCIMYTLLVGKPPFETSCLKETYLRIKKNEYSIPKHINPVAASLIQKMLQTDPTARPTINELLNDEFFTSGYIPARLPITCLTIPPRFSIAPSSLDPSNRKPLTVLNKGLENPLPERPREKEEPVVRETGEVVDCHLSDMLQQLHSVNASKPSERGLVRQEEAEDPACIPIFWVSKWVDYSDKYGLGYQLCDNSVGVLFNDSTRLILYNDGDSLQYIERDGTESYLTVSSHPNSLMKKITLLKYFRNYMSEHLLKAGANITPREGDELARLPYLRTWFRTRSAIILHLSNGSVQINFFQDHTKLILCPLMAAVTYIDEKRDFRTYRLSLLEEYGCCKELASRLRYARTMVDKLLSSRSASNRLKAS
Protocol: Detection solution PerkinElmer #TRF0218-M
Detection instrument PerkinElemer EnVision
a. Using the Echo machine, the compounds to be tested were diluted by 1:3 on a 384-well plate, and the highest concentration was 1 μM, with a total of 10 concentration points, and each concentration was tested in duplicate wells.
b. 5 μL/well of PLK1 kinase and peptide substrate mixture were added to the assay plate (containing controls).
d. The reaction was initiated by adding 5 μL/well of ATP solution;
e. The assay plate was centrifuged at 1000 rpm for about 15 seconds, a film was used to seal the assay plate which was incubated at 23° C. for a period of time;
f. A detection solution was added to all wells of the assay plate;
g. The assay plate was centrifuged at 1000 rpm for approximately 15 seconds, a film was used to seal the assay plate which was incubated at 23° C. for 60 min.
h. The assay plate was read on EnVision. The test results were analyzed using XLFIT5 software.

HCT116 cells = assay: Inhibitory activity on HCT116 cell proliferation (ATPlite); format: cell-based; conditions: Homo sapiens, HCT-116; HCT116 cells, 72 h; read-out: IC50
Protocol: Cell culture medium: RPMI1640+10% FBS (GBICO)
Cell culture plate: 96-well plate (Shanghai Jingan Biotechnology Co., Ltd.)
Detection kit: ATPlite 1step Luminescence (PerkinElmer)
Detection instrument: BioTek multifunctional microplate reader
2. Test method: HCT116 cells in the logarithmic growth phase were seeded into a white-wall clear-bottom 96-well plate at a density of 720 cells per well, and cultured overnight in a 37° C., 5% CO2 incubator. […] After adding the drug, culturing was continued for 72 h in a 37° C., 5% CO2 incubator.
GraphPad Prism 7.0 was used to process the data, the cell inhibition rate curve was obtained and IC50 was calculated.

[1] = Metabolic stability in mouse liver microsomes; format: in vitro ADME; conditions: for CLint scaled at 1 µM / half-life at 1 µM / microsomal CLint at 1 µM: mouse; for CLint scaled at 1 µM / half-life at 1 µM: pH 7.4; for microsomal CLint at 1 µM: pH 7.4, read-out: CLint(mic)
Protocol: (§1) a. Preparation of phosphate buffer: The phosphate buffer powder was dissolved in 100 mL of pure water to prepare a phosphate buffer solution with a pH of 7.4 and a concentration of 100 mM, which was stored in a 4° C. refrigerator for later use.
(§2) b. All samples as well as the reference testosterone were dissolved in DMSO to obtain a 10 mM stock solution. The 10 mM stock solution was diluted to 100 μM with acetonitrile to obtain a working solution for later use.
(§3) c. Preparation of liver microsome working solution: Each of the mouse, rat and human liver microsome stock solutions (at concentration of 20 mg/mL) was taken and diluted to 0.56 mg/mL with 100 mM phosphate buffer solution to obtain the liver microsome working solution.
(§4) d. Preparation of solution: An appropriate amount of MgCl2 was weighed and used to prepare a MgCl2 solution at a concentration of 60 mM using 100 mM phosphate buffer solution. An appropriate amount of NADPH was weighed and used to prepare a NADPH solution at a concentration of 20 mM using 100 mM phosphate buffer solution. An equal volume of 60 mM MgCl2 solution was added to prepare an NADPH working solution containing 10 mM NADPH and 30 mM MgCl2. An acetonitrile solution containing 20 ng/mL tolbutamide was prepared as the stop solution.
(§5) e. Liver microsome incubation: 2 μL of each compound and the positive drug testosterone working solution were added to 178 μL of liver microsome working solution (0.56 mg/mL), mixed gently, and pre-incubated in a vibrating constant temperature water bath pot at 37° C. for 10 min. After adding 20 μL of NADPH working solution, the mixture was placed in a vibrating constant temperature water bath pot at 37° C. and timed incubation was started for 5, 10, 20, 30 and 60 min.
(§6) f. Stopping reaction: After the corresponding time of incubation, 400 μL of stop solution was added to stop the reaction, and then the sample was immediately shaken for 1 min. The sample was centrifuged at 13500 rpm for 10 min at 10° C. After centrifugation, the supernatant was removed, diluted with water according to the needs of each compound, and analyzed by LC-MS. For the 0-minute sample, the stop solution was first added and mixed evenly with the liver microsomes, and then the NADPH working solution was added. For the negative control sample, 20 μL of 30 mM MgCl2 solution was added instead of the NADPH working solution.
(§7) T1/2 and CLint(mic) were calculated by the following formula.
(§8) [formula] [formula] • CLint(mic)=0.693/T1/2/liver microsomal protein concentration during incubation (mg/mL) • CLint(ver)=CLint(mic)*liver microsomal protein (mg)/liver weight (g)*liver weight to body weight ratio
(§9) Liver microsomal protein (mg)/liver weight (g): the value is 45 in both animal and human species.
(§10) Liver weight to body weight ratio: the parameters for mice, rats and humans are 88, 40 and 20 g/kg respectively.

[2] = Metabolic stability in rat liver microsomes; format: in vitro ADME; conditions: for CLint scaled at 1 µM / half-life at 1 µM / microsomal CLint at 1 µM: rat; for CLint scaled at 1 µM / half-life at 1 µM: pH 7.4; for microsomal CLint at 1 µM: pH 7.4, read-out: CLint(mic)
Protocol: as §1, §2, §3, §4, §5, §6, §7, §8, §9, §10

[3] = Metabolic stability in human liver microsomes; format: in vitro ADME; conditions: for CLint scaled at 1 µM / half-life at 1 µM / microsomal CLint at 1 µM: human; for CLint scaled at 1 µM / half-life at 1 µM: pH 7.4; for microsomal CLint at 1 µM: pH 7.4, read-out: CLint(mic)
Protocol: as §1, §2, §3, §4, §5, §6, §7, §8, §9, §10

[4] = Permeability and efflux transporter substrate evaluation in Caco-2 cells; format: in vitro ADME; set-up: Papp A→B at 120 min / Papp B→A at 120 min / efflux ratio at 120 min / Papp at 120 min: dose or concentration left out as unconfirmed; conditions: human
Protocol: (§11) The cells were cultured in a carbon dioxide incubator for 21-28 days before being used for transport experiments. During this period, the culture medium was changed every four to five days.
(§12) This project uses Hank's balanced salt buffer (pH 7.40±0.05) containing 10 mM HEPES as the transport buffer. The culture medium was removed from the culture plate and the cells were washed twice with preheated transport buffer (approximately 75 μL and 40 mL of transport buffer for each apical well and basolateral receiver plate respectively). The donor solution and receiver solution were added to the corresponding cell plate wells (75 and 250 μL for each apical and basolateral well respectively), and the bidirectional transport experiment was started (apical to basolateral (A-B) and basolateral to apical (B-A)). The test concentration of the test substance was […], and two replicate wells were made for each dosing concentration. The test concentration of Digoxin was […], with dosing bidirectionally; the test concentrations of nadolol and metoprolol were both […], and they were dosed in one direction (A-B direction), and two replicate wells were made for each of the three control compounds.
(§13) The initial donor solution is the TO sample. After adding the sample, it was mixed with the transport buffer and stop solution in a certain proportion.
(§14) All samples were vortexed, and then centrifuged at 3220×g for 20 min at 20° C. A proper volume of supernatant was transferred to a sample assay plate, and the sample was stored at 2-8° C. if it was not analyzed immediately after the plate was sealed, and LC MS/MS method was used for analysis.
(§15) The Lucifer Yellow Rejection Assay was used to test the integrity of the Caco-2 cell layer.
(§16) The following formulas were used to calculate the apparent permeability coefficient (Papp, cm/s), efflux ratio (ER), and solution recovery (%) (% Solution Recovery).
(§17) [formula] [formula] [formula] • VR is the volume of the receiver side solution (side A is 0.075 mL, side B is 0.25 mL); Area is the relative surface area of the cell monolayer (0.0804 cm^2); Time is the incubation time (7200 s); C0 is the initial concentration (nM) of the test substance at the donor side or the peak area ratio of the control compound; VD is the volume of the donor side (side A is 0.075 mL, side B is 0.25 mL); CD and CR are the final concentration (nM) of the test substance at the donor side and the receiver side respectively or the peak area ratio of the control compound; • Lucifer yellow transmittance rate (% Lucifer Yellow) is calculated using the following formula:
(§18) [formula] • RFUApical and RFUBasolateral are the relative fluorescence intensity of lucifer yellow at the apical and basolateral sides respectively. VApical and VBasolateral are the sample loading volumes at the apical and basolateral sides respectively (0.075 and 0.25 mL respectively).

Caco-2 cells = assay: as above; format: in vitro ADME; set-up: Papp A→B at 120 min / Papp B→A at 120 min / efflux ratio at 120 min / Papp at 120 min: dose or concentration left out as unconfirmed; conditions: Caco-2
Protocol: as §11, §12, §13, §14, §15, §16, §17, §18

[5] = PLK1 kinase, highest concentration 1 μM, 10 points, read-out: IC50

SMILES: CN1CCN(c2ccc(OC(F)(F)F)c(Nc3ncc4ccc5c(C(=O)NO)nn(CCF)c5c4n3)c2)CC1 [Compound 25]
IC50 (PLK1 kinase): 1.12 nM
Imax (PLK1 kinase): 100.23%

SMILES: CN1CCN(c2ccc(OC(F)(F)F)c(Nc3ncc4ccc5c(C(=O)NOCCO)nn(CCO)c5c4n3)c2)CC1 [Compound 31]
IC50 (PLK1 kinase): 1.55 nM
Imax (PLK1 kinase): 99.54%

IC50 (PLK1 kinase; [5]): 73.3 nM
Imax (PLK1 kinase): 76.81%
IC50 (HCT116 cells): 924 nM
SMILES: CN1CCN(c2ccc(OC(F)(F)F)c(Nc3ncc4c(n3)-c3c(c(C(N)=O)nn3CCO)N(C)C4)c2)CC1 [Compound 5]

IC50 (PLK1 kinase; [5]): 0.814 nM
Imax (PLK1 kinase): 99.97%
60 min remaining amount [1]: 2.46%
Clearance rate [1]: High
CLint scaled at 1 µM [1]: 470 mL/min/kg
half-life at 1 µM [1]: 11.7 min
microsomal CLint at 1 µM [1]: 119 µL/min/mg
60 min remaining amount [2]: 1.93%
Clearance rate [2]: High
CLint scaled at 1 µM [2]: 410 mL/min/kg
half-life at 1 µM [2]: 6.08 min
microsomal CLint at 1 µM [2]: 228 µL/min/mg
60 min remaining amount [3]: 26.0%
Clearance rate [3]: Medium
CLint scaled at 1 µM [3]: 41.8 mL/min/kg
half-life at 1 µM [3]: 29.9 min
microsomal CLint at 1 µM [3]: 46.4 µL/min/mg
SMILES: CN1CCN(c2ccc(OC(F)(F)F)c(Nc3ncc4c(n3)-c3c(c(C(=O)NO)nn3CCF)CC4)c2)CC1 [Compound 17]

SMILES: CN1CCN(c2ccc(OC(F)(F)F)c(Nc3ncc4ccc5c(C(=O)NO)nn(CC(F)(F)F)c5c4n3)c2)CC1 [Compound 32]
IC50 (PLK1 kinase): 0.463 nM
Imax (PLK1 kinase): 99.87%

IC50 (PLK1 kinase; [5]): 0.79 nM
Imax (PLK1 kinase): 100.68%
efflux ratio at 120 min ([4]; Caco-2, pH 7.4): 1.97
Papp at 120 min ([4]; Caco-2, pH 7.4, read-out: Classification Permeability): < 0.5 ×10⁻⁶ cm/s
Papp A→B at 120 min ([4]; pH 7.4, Caco-2, apical to basolateral, 120 min, pH 7.40): 0.275 ×10⁻⁶ cm/s
Papp B→A at 120 min ([4]; pH 7.4, Caco-2, basolateral to apical, 120 min, pH 7.40): 0.542 ×10⁻⁶ cm/s
Classification Efflux transporter substrate (Caco-2 cells): Very unlikely or not (ERa < 2.00)
60 min remaining amount [1]: 2.92%
Clearance rate [1]: High
CLint scaled at 1 µM [1]: 940 mL/min/kg
half-life at 1 µM [1]: 5.84 min
microsomal CLint at 1 µM [1]: 237 µL/min/mg
60 min remaining amount [2]: 2.06%
Clearance rate [2]: High
CLint scaled at 1 µM [2]: 1090 mL/min/kg
half-life at 1 µM [2]: 2.3 min
microsomal CLint at 1 µM [2]: 603 µL/min/mg
60 min remaining amount [3]: 14.1%
Clearance rate [3]: High
CLint scaled at 1 µM [3]: 60.7 mL/min/kg
half-life at 1 µM [3]: 20.6 min
microsomal CLint at 1 µM [3]: 67.4 µL/min/mg
SMILES: CCc1sc(C(N)=O)c2c1-c1nc(Nc3cc(N4CCN(C)CC4)ccc3OC(F)(F)F)ncc1CC2 [Compound 7]

SMILES: CN1CCN(c2ccc(OC(F)(F)F)c(Nc3ncc4ccc5c(C(N)=O)cn(CCO)c5c4n3)c2)CC1 [Compound 21]
IC50 (PLK1 kinase): 0.756 nM
Imax (PLK1 kinase): 99.15%
